Source: US8785483B2, “Methods for treating COPD” (The Board of Regents of the University of Texas System, priority 2010, dated 2014)

Legend:
JAK1 = experiment: Western blot of JAK1 phosphorylation in airway epithelial monolayer; assay type: cell-based, human
Description: (§1) FIG. 7. AR inhibition prevents IL-13-induced phosphorylation of JAK-1, ERK1/2 and STAT-6 in airway epithelial monolayer. The ciliated monolayer of airway cells at ALI was treated with AR inhibitor for 24 h and stimulated with IL-13 for different time periods as indicated. At the end of incubation, cells were lysed and cell lysate was subjected to western blotting using antibodies against phosphorylated and nonphosphorylated JAK-1, ERK1/2 and STAT-6 to analyze the activation of these signaling proteins. A representative blot is shown (n=4). #p<0.001 vs Control; *p<0.01 and **p<0.001 vs IL-13. For air-liquid interface (ALI) culture, SAEC were seeded at 8.5×10^4 cells/12-mm-diameter PET transparent insert with […] pores (12-well millicell culture insert; Millipore) and pre-coated with rat tail collagen type-1 (Sigma-Aldrich). The cells were grown submerged in the differentiation medium as described earlier by Zhen et al. (Am J Respir Cell Mol Biol 36: 244-253, 2007). […] Protein levels were determined using Bradford reagent (Biorad, Hercules, Calif.). […] The blots were then washed, exposed to HRP-conjugated secondary antibodies (1:5,000 dilution) for 1 h, and the antigen-antibody complex was detected by enhanced chemiluminescence (Amersham Pharmacia Biotech, Piscataway, N.J., USA). […]

STAT-6 = experiment: Western blot of STAT-6 phosphorylation in airway epithelial monolayer; assay type: cell-based, human; settings: ALI monolayer, AR inhibitor 24 h prior to IL-13
Description: as §1

[1] = system: goblet cell metaplasia in mice lungs; experiment: RWE-induced goblet cell metaplasia in mice lungs (PAS stain); assay type: in vivo; settings: RWE-sensitized and challenged mice, fidarestat 7 mg/kg body wt/day in drinking water, 72 h after challenge
Description: FIGS. 10A-10B. Inhibition or deficiency of AR prevents RWE-induced goblet cell metaplasia in mice lungs. RWE-sensitized normal and AR-null mice were challenged with RWE and 72 h later the lungs were harvested from mice treated without or with AR inhibitor (A) or AR-null mice (B), perfused and fixed with 4% paraformaldehyde and embedded in paraffin. The sections were stained with PAS stain and observed under light microscope and photomicrographs were acquired. A representative photomicrograph from each group is shown (n=4). Magnification 200× (A); 400× (B).
Wild type C57BL/6 and Balb/cJ mice were purchased from Harlan Sprague-Dawley (San Diego, Calif., USA) and AR null mice on C57BL/6 background were bread by us at Animal resource center, UTMB, Galveston, Tex. Six-eight weeks old female mice were sensitized with RWE as previously described (Hwang et al., FASEB J. 19: 795-797, 2005). Briefly, mice were sensitized with two intraperitoneal administrations of 100 μl of endotoxin-free RWE (150 μg) combined with Alum adjuvant (1 mg) in a 3:1 ratio (v/v), on days 0 and 4. On day 11, mice (n=6) were challenged intranasally with RWE (100 μg). A parallel group of mice received fidarestat (7 mg/kg body wt/day) in drinking water from one day before the challenge. Control groups of mice were challenged with equivalent volumes of PBS. […]

How did the “IL-13-induced phosphorylation of JAK1” value (JAK1; ALI monolayer, AR inhibitor 24 h prior to IL-13) turn out when `NC(=O)[C@@H]1C[C@]2(NC(=O)NC2=O)c2cc(F)ccc2O1` [fidarestat, (2S,4S)-2-aminoformyl-6-fluoro-spiro[chroman-4,4′-imidazolidine]-2′,5′-dione] was run?
Its value is “decreased significantly”.

What about the “basal phosphorylation of JAK1” value (JAK1; AR inhibitor alone, no IL-13) of the same compound?
Its value is “decreased”.

What about the “IL-13-induced phosphorylation of STAT-6” value (STAT-6) of the same compound?
Its value is “decreased significantly”.

What about the “PAS positive cells in the airway” value [1] of the same compound?
The value was “absent”.
